Measured values as given in patent publication US8017612B2, “Piperazine compound and use thereof as a HCV polymerase inhibitor” (priority 2006, dated 2011).
Structures can show the parent of a compound that is named as a salt.

What was measured:
[1] = molecular target: T1, HCV polymerase (NS5B) type 1b (Hepatitis C virus genotype 1b, UniProt P26663); assay: Assay of enzyme (HCV polymerase) inhibitory activity, type 1b enzyme; format: biochemical, HCV BK strain (type 1b); conditions: HCV polymerase inhibitory activity (IC50), 1b, type 1b enzyme 0.5 μg/ml, 25° C., 60 min
T1 construct: a region encoding NS5B (J Virol 1991 March, 65(3), 1105-13, 544 amino acids after deletion of 47 amino acids on the C-terminal); 6xHis (C); made in house; host or cells: Escherichia coli
In short: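 Polymerase activity was followed as radiolabelled UTP incorporation by E. coli-expressed, His-tagged NS5B of HCV type 1b lacking its last 47 residues. Conditions: 2 μM UTP, 50 μM other NTPs, Mg2+ buffer at pH 7.5, 25 °C for 60 min. Inhibition relative to compound-free reactions gave IC50.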

[2] = molecular target: T2, HCV polymerase (NS5B) type 1a (Hepatitis C virus genotype 1a, UniProt P26664); assay: Assay of enzyme (HCV polymerase) inhibitory activity, type 1a enzyme; format: biochemical, HCV type 1a (cloned from the blood of patients); conditions: HCV polymerase inhibitory activity (IC50), 1a, type 1a enzyme 1.5 μg/ml, 25° C., 60 min
T2 construct: made in house; host or cells: Escherichia coli (by the 'similar method' of the 1b enzyme)
In short: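 IC50 values derive from radioactivity of newly synthesized RNA with versus without test compound. The enzyme was C-terminally truncated type 1a NS5B, 1.5 μg/ml, run 60 min at 25° C with 3H-UTP-labelled nucleotides.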

| SMILES | IC50 [1] | IC50 [2] |
| --- | --- | --- |
| CC(=O)N1CCN(S(=O)(=O)c2ccc(C(C)C)cc2)[C@@H](C(=O)NCCc2c[nH]cn2)C1 [Example 433, (R)-4-acetyl-1-(4-isopropyl-benzenesulfonyl)-piperazine-2-carboxylic acid [2-(1H-imidazol-4-yl)-ethyl]-amide hydrochloride] | > 1000 nM | > 1000 nM |
| CCCc1ccc(S(=O)(=O)N2CCN(c3nc(C(=O)O)c(C)s3)C[C@@H]2C(=O)NCc2ccc(C(C)C)cc2)cc1 [Example 434, 2-[(R)-3-(4-isopropyl-benzylcarbamoyl)-4-(4-propyl-benzenesulfonyl)-piperazin-1-yl]-5-methyl-thiazole-4-carboxylic acid] | < 100 nM | < 100 nM |
| CCCc1ccc(CNC(=O)[C@H]2CN(c3cnc(C(=O)O)cn3)CCN2S(=O)(=O)c2ccc3c(c2)CCCCC3)cc1 [Example 435, (R)-3-(4-propyl-benzylcarbamoyl)-4-(6,7,8,9-tetrahydro-5H-benzenecycloheptene-2-sulfonyl)-3,4,5,6-tetrahydro-2H-[1,2′]bipyrazinyl-5′-carboxylic acid] | < 100 nM | < 100 nM |
| CCCc1ccc(CNC(=O)[C@H]2CN(C(=O)Nc3ccncc3)CCN2S(=O)(=O)c2ccc(OC(F)(F)F)cc2)cc1 [Example 436, (R)-4-(4-trifluoromethoxy-benzenesulfonyl)-piperazine-1,3-dicarboxylic acid 3-(4-propyl-benzylamide) 1-pyridin-4-ylamide] | < 100 nM | < 100 nM |
| CCCc1ccc(CNC(=O)[C@H]2CN(C(=O)Nc3nncs3)CCN2S(=O)(=O)c2ccc(OC(F)(F)F)cc2)cc1 [Example 437, (R)-4-(4-trifluoromethoxy-benzenesulfonyl)-piperazine-1,3-dicarboxylic acid 3-(4-propyl-benzylamide) 1-[1,3,4]thiadiazol-2-ylamide] | < 100 nM | < 100 nM |
| CCCc1ccc(CNC(=O)[C@H]2CN(c3cnc(C(=O)O)cn3)CCN2S(=O)(=O)c2ccc(CCC)s2)cc1 [Example 438, (R)-3-(4-propyl-benzylcarbamoyl)-4-(5-propyl-thiophene-2-sulfonyl)-3,4,5,6-tetrahydro-2H-[1,2′]bipyrazinyl-5′-carboxylic acid] | < 100 nM | < 100 nM |
| CC(C)c1ccc(CNC(=O)[C@H]2CN(c3cc(C(=O)O)nn3C)CCN2S(=O)(=O)c2ccc(C(F)(F)F)cc2)cc1 [Example 439, 5-[(R)-3-(4-isopropyl-benzylcarbamoyl)-4-(4-trifluoromethyl-benzenesulfonyl)-piperazin-1-yl]-1-methyl-1H-pyrazole-3-carboxylic acid] | 100 to 1000 nM | > 1000 nM |
| CCCc1ccc(CNC(=O)[C@H]2CN(c3cnc(C(=O)O)cn3)CCN2S(=O)(=O)c2ccc(CCC)cc2)cc1 [Example 440, (R)-4-(4-propyl-benzenesulfonyl)-3-(4-propyl-benzylcarbamoyl)-3,4,5,6-tetrahydro-2H-[1,2′]bipyrazinyl-5′-carboxylic acid] | < 100 nM | < 100 nM |
| CCCc1ccc(S(=O)(=O)N2CCN(c3cnc(C(=O)O)cn3)C[C@@H]2C(=O)NCc2ccc(CCC)cc2C)cc1 [Example 441, (R)-3-(2-methyl-4-propyl-benzylcarbamoyl)-4-(4-propyl-benzenesulfonyl)-3,4,5,6-tetrahydro-2H-[1,2′]bipyrazinyl-5′-carboxylic acid] | < 100 nM | < 100 nM |
| CCOc1ccc(CNC(=O)[C@H]2CN(c3nc(C)c(C(=O)O)s3)CCN2S(=O)(=O)c2ccc(OC(F)(F)F)cc2)cc1 [Example 442, 2-[(R)-3-(4-ethoxy-benzylcarbamoyl)-4-(4-trifluoromethoxy-benzenesulfonyl)-piperazin-1-yl]-4-methyl-thiazole-5-carboxylic acid] | < 100 nM | 100 to 1000 nM |
| CC(C)c1ccc(CNC(=O)[C@H]2CN(c3cnc(C(=O)O)c(N)n3)CCN2S(=O)(=O)c2ccc(C(F)(F)F)cc2)cc1 [Example 443, (R)-6′-amino-3-(4-isopropyl-benzylcarbamoyl)-4-(4-trifluoromethyl-benzenesulfonyl)-3,4,5,6-tetrahydro-2H-[1,2′]bipyrazinyl-5′-carboxylic acid] | < 100 nM | 100 to 1000 nM |
| CCCc1ccc(CNC(=O)[C@H]2CN(c3nc(C(F)(F)F)c(C(=O)OCC)s3)CCN2S(=O)(=O)c2ccc(OC(F)(F)F)cc2)cc1 [Example 444, 2-[(R)-3-(4-propyl-benzylcarbamoyl)-4-(4-trifluoromethoxy-benzenesulfonyl)-piperazin-1-yl]-4-trifluoromethyl-thiazole-5-carboxylic acid ethyl ester] | 100 to 1000 nM | 100 to 1000 nM |
| CC(C)c1ccc(CNC(=O)[C@H]2CN(c3cc(C(=O)O)n(C)n3)CCN2S(=O)(=O)c2ccc(C(F)(F)F)cc2)cc1 [Example 445, 5-[(R)-3-(4-isopropyl-benzylcarbamoyl)-4-(4-trifluoromethyl-benzenesulfonyl)-piperazin-1-yl]-2-methyl-2H-pyrazole-3-carboxylic acid] | < 100 nM | 100 to 1000 nM |
| Cc1nc(N2CCN(S(=O)(=O)c3ccc(C(F)(F)F)cc3)[C@@H](C(=O)NCc3ccc(C(C)C)cc3)C2)sc1C(=O)NS(C)(=O)=O [Example 446, (R)-4-(5-methanesulfonylaminocarbonyl-4-methyl-thiazol-2-yl)-1-(4-trifluoromethyl-benzenesulfonyl)-piperazine-2-carboxylic acid 4-isopropyl-benzylamide] | < 100 nM | 100 to 1000 nM |
| CCCc1ccc(CNC(=O)[C@H]2CN(c3nc(C)c(C(=O)NS(C)(=O)=O)s3)CCN2S(=O)(=O)c2ccc(OC(F)(F)F)cc2)cc1 [Example 447, (R)-4-(5-methanesulfonylaminocarbonyl-4-methyl-thiazol-2-yl)-1-(4-trifluoromethoxy-benzenesulfonyl)-piperazine-2-carboxylic acid 4-propyl-benzylamide] | < 100 nM | 100 to 1000 nM |
| CCC(F)(F)c1ccc(CNC(=O)[C@H]2CN(c3nc(C)c(C(=O)O)s3)CCN2S(=O)(=O)c2ccc(OC(F)(F)F)cc2)cc1 [Example 448, 2-[(R)-3-[4-(1,1-difluoro-propyl)-benzylcarbamoyl]-4-(4-trifluoromethoxy-benzenesulfonyl)-piperazin-1-yl]-4-methyl-thiazole-5-carboxylic acid] | < 100 nM | < 100 nM |
| CCCc1ccc(CNC(=O)[C@H]2CN(c3cnc(C(=O)O)c(C)n3)CCN2S(=O)(=O)c2ccc(OC(F)(F)F)cc2)cc1 [Example 449, (R)-6′-methyl-3-(4-propyl-benzylcarbamoyl)-4-(4-trifluoromethoxy-benzenesulfonyl)-3,4,5,6-tetrahydro-2H-[1,2′]bipyrazinyl-5′-carboxylic acid] | < 100 nM | < 100 nM |
| CCCc1ccc(CNC(=O)[C@H]2CN(C(C)=O)CCN2S(=O)(=O)c2ccc(OC(F)(F)F)cc2)cc1 [Example 450, (R)-4-acetyl-1-(4-trifluoromethoxy-benzenesulfonyl)-piperazine-2-carboxylic acid 4-propyl-benzylamide] | < 100 nM | < 100 nM |
| COCc1ccc(CNC(=O)[C@H]2CN(c3nc(C)c(C(=O)O)s3)CCN2S(=O)(=O)c2ccc(OC(F)(F)F)cc2)cc1 [Example 451, 2-[(R)-3-(4-methoxymethyl-benzylcarbamoyl)-4-(4-trifluoromethoxy-benzenesulfonyl)-piperazin-1-yl]-4-methyl-thiazole-5-carboxylic acid] | < 100 nM | < 100 nM |
| CCCc1ccc(CNC(=O)[C@H]2CN(c3nc(C)c(CO)s3)CCN2S(=O)(=O)c2ccc(OC(F)(F)F)cc2)cc1 [Example 452, (R)-4-(5-hydroxymethyl-4-methyl-thiazol-2-yl)-1-(4-trifluoromethoxy-benzenesulfonyl)-piperazine-2-carboxylic acid 4-propyl-benzylamide] | < 100 nM | < 100 nM |
| CCCc1ccc(CNC(=O)[C@H]2CN(c3nc(C(F)(F)F)c(C(=O)O)s3)CCN2S(=O)(=O)c2ccc(OC(F)(F)F)cc2)cc1 [Example 453, 2-[(R)-3-(4-propyl-benzylcarbamoyl)-4-(4-trifluoromethoxy-benzenesulfonyl)-piperazin-1-yl]-4-trifluoromethyl-thiazole-5-carboxylic acid] | < 100 nM | < 100 nM |
| CCCc1ccc(CNC(=O)[C@H]2CN(c3cc(C)c(O)nn3)CCN2S(=O)(=O)c2ccc(OC(F)(F)F)cc2)cc1 [Example 454, (R)-4-(6-hydroxy-5-methyl-pyridazin-3-yl)-1-(4-trifluoromethoxy-benzenesulfonyl)-piperazine-2-carboxylic acid 4-propyl-benzylamide] | < 100 nM | < 100 nM |
| CCCc1ccc(CNC(=O)[C@H]2CN(C(=O)Cn3nnc(CC(=O)OCC)n3)CCN2S(=O)(=O)c2ccc(OC(F)(F)F)cc2)cc1 [Example 455, (2-{2-oxo-2-[(R)-3-(4-propyl-benzylcarbamoyl)-4-(4-trifluoromethoxy-benzenesulfonyl)-piperazin-1-yl]-ethyl}-2H-tetrazol-5-yl)-acetic acid ethyl ester] | < 100 nM | < 100 nM |
